Data published in patent US20220395497A1, “Cancer Treatment Using Camptothecin Derivatives” (priority 2019, published 2022).
Values joined by “and” are separate entries in the source; they are usually repeats but may differ in a detail not shown here. Identical values can stand only once.

System: adults with recurrence of glioblastoma multiforme (GBM)
Test: Phase 2 open-label study of IV AR-67 (7.5 mg/m2 once daily for 5 days, 21-day cycle) in recurrent GBM: adverse events (Safety Population, NCI-CTCAE). Cohort 1 = not received or not recently failed (>90 days) bevacizumab; Cohort 2 = recently (<90 days) failed bevacizumab
Type: in vivo, human
Protocol: This solution was reconstituted in dextrose 5% in water to a final concentration between 0.06-0.6 mg/mL Drug (7.5 mg/m2) was to be given until the onset of toxicity requiring discontinuation or tumor progression. Tumor response was assessed=14d after every second cycle and before every third cycle using MRI.

[1] = All Patients, N = 45, possibly, probably, or definitely related

Compound: CC[C@@]1(O)C(=O)OCc2c1cc1n(c2=O)Cc2c-1nc1ccc(O)cc1c2[Si](C)(C)C(C)(C)C [AR-67, (205)-7-tert-butyldimethysilyl-10-hydroxycamptothecin]
- TEAEs associated with laboratory abnormalities assessed as Grade 4 in toxicity, events (All Patients): Three
- headache as TEAE leading to discontinuation, patients (All Patients): 3
- patients with AR-67 permanently discontinued due to an SAE (All Patients): Three
- patients with AR-67 temporarily interrupted or stopped due to an SAE (All Patients): Six
- patients with dose modification due to an SAE (All Patients): 2
- thrombocytopenia, anaemia, neutropenia, and leukopenia, each occurring in % of all patients (All Patients): 11-18%
- Death, No of Events (All Patients, N = 45): 3
- Death, patients (%) (All Patients, N = 45): (6.7) %
- SAE, No of Events (All Patients, N = 45): 30
- TEAE Anaemia, patients (%) (All Patients, N = 45): 15.6%
- TEAE Confusional state, patients (%) (All Patients, N = 45): 11.1%
- TEAE Constipation, patients (%) (All Patients, N = 45): 20.0%
- TEAE Convulsion, patients (%) (All Patients, N = 45): 8.9%
- TEAE Definitely Related to AR-67, No of Events (All Patients, N = 45): 55
- TEAE Diarrhoea, patients (%) (All Patients, N = 45): 15.6%
- TEAE Dizziness, patients (%) (All Patients, N = 45): 11.1%
- TEAE Dyspepsia, patients (%) (All Patients, N = 45): 8.9%
- TEAE Eye Disorders, patients (%) (All Patients, N = 45): 8.9%
- TEAE Flushing, patients (%) (All Patients, N = 45): 11.1%
- TEAE Gastrointestinal Disorders, patients (%) (All Patients, N = 45): (51.1) %
- TEAE General Disorders and Administration Site Conditions, patients (%) (All Patients, N = 45): (37.8) %
- TEAE Headache, patients (%) (All Patients, N = 45): (22.2) %
- TEAE Hiccups, patients (%) (All Patients, N = 45): 11.1%
- TEAE Hyperglycaemia, patients (%) (All Patients, N = 45): 8.9%
- TEAE Hypopho sphataemia, patients (%) (All Patients, N = 45): 8.9%
- TEAE Intensity Life Threatening, No of Events (All Patients, N = 45): 4
- TEAE Intensity Life Threatening, patients (%) (All Patients, N = 45): (8.9) %
- TEAE Intensity Mild, No of Events (All Patients, N = 45): 212/428 and 212
- TEAE Intensity Mild, patients (%) (All Patients, N = 45): (68.9) %
- TEAE Intensity Moderate, No of Events (All Patients, N = 45): 128/428 and 128
- TEAE Intensity Moderate, patients (%) (All Patients, N = 45): (57.8) %
- TEAE Intensity Severe, No of Events (All Patients, N = 45): 75
- TEAE Intensity Severe, patients (%) (All Patients, N = 45): (62.2) %
- TEAE Leukopenia, patients (%) (All Patients, N = 45): 11.1%
- TEAE Lymphocyte count decreased, patients (%) (All Patients, N = 45): 11.1%
- TEAE Muscular weakness, patients (%) (All Patients, N = 45): 11.1%
- TEAE Musculoskeletal and Connective Tissue Disorders, patients (%) (All Patients, N = 45): (28.9) %
- TEAE Musculoskeletal pain, patients (%) (All Patients, N = 45): 6.7%
- TEAE NCI-CTCAE Grade 1, No of Events (All Patients, N = 45): 209
- TEAE NCI-CTCAE Grade 1, patients (%) (All Patients, N = 45): (66.7) %
- TEAE NCI-CTCAE Grade 2, No of Events (All Patients, N = 45): 119
- TEAE NCI-CTCAE Grade 2, patients (%) (All Patients, N = 45): (51.1) %
- TEAE NCI-CTCAE Grade 3, No of Events (All Patients, N = 45): 82
- TEAE NCI-CTCAE Grade 3, patients (%) (All Patients, N = 45): (66.7) %
- TEAE NCI-CTCAE Grade 4, No of Events (All Patients, N = 45): 9
- TEAE NCI-CTCAE Grade 4, patients (%) (All Patients, N = 45): (20.0) %
- TEAE Nausea, patients (%) (All Patients, N = 45): 20.0%
- TEAE Nervous System Disorders, patients (%) (All Patients, N = 45): (51.1) %
- TEAE Neutropenia, patients (%) (All Patients, N = 45): 13.3%
- TEAE Neutrophil count decreased, patients (%) (All Patients, N = 45): 13.3%
- TEAE Not Related to AR-67, No of Events (All Patients, N = 45): 117
- TEAE Platelet count decreased, patients (%) (All Patients, N = 45): 8.9%
- TEAE Possibly Related to AR-67, No of Events (All Patients, N = 45): 170
- TEAE Probably Related to AR-67, No of Events (All Patients, N = 45): 79
- TEAE Psychiatric Disorders, patients (%) (All Patients, N = 45): (28.9) %
- TEAE Respiratory, Thoracic, and Mediastinal Disorders, patients (%) (All Patients, N = 45): (24.4) %
- TEAE Thrombocytopenia, patients (%) (All Patients, N = 45): 17.8%
- TEAE Vascular Disorders, patients (%) (All Patients, N = 45): 17.8%
- TEAE Vision blurred, patients (%) (All Patients, N = 45): 8.9%
- TEAE Vomiting, patients (%) (All Patients, N = 45): 8.9%
- TEAE White blood cell count decreased, patients (%) (All Patients, N = 45): 11.1%
- TEAE leading to death, No of Events (All Patients, N = 45): 17
- TEAE leading to early discontinuation, No of Events (All Patients, N = 45): 10
- TEAE, No of Events (All Patients, N = 45): 428
- ≥1 TEAE leading to death, patients (%) (All Patients, N = 45): (4.4) %
- 1 related SAE, patients (%) [1]: (24.4) %
- related SAE, No of Events [1]: 19/29 and 19/30 and 11/30 and 19
- related TEAE, No of Events [1]: 304
- SAE headache, patients (Cohort 1): 1
- SAE infections and infestations, events (Cohort 1): 4
- SAE infections and infestations, patients (Cohort 1): 3
- SAE nervous system disorders, events (Cohort 1): 3
- SAE nervous system disorders, patients (Cohort 1): 3
- SAE respiratory, thoracic and mediastinal disorders, events (Cohort 1): 3
- SAE respiratory, thoracic and mediastinal disorders, patients (Cohort 1): 2
- Death, No of Events (Cohort 1, N = 30): 1
- Death, patients (%) (Cohort 1, N = 30): (3.3) %
- SAE, No of Events (Cohort 1, N = 30): 16
- TEAE Anaemia, patients (%) (Cohort 1, N = 30): 23.3% and 23%
- TEAE Blood and Lymphatic System Disorders, events (Cohort 1, N = 30): 41
- TEAE Confusional state, patients (%) (Cohort 1, N = 30): 10.0%
- TEAE Constipation, patients (%) (Cohort 1, N = 30): 23.3% and 23%
- TEAE Convulsion, patients (%) (Cohort 1, N = 30): 10.0%
- TEAE Definitely Related to AR-67, No of Events (Cohort 1, N = 30): 36
- TEAE Definitely Related to AR-67, patients (%) (Cohort 1, N = 30): (40.0) %
- TEAE Diarrhoea, patients (%) (Cohort 1, N = 30): 16.7%
- TEAE Dizziness, patients (%) (Cohort 1, N = 30): 16.7%
- TEAE Dyspepsia, patients (%) (Cohort 1, N = 30): 13.3%
- TEAE Eye Disorders, patients (%) (Cohort 1, N = 30): (10.0) %
- TEAE Flushing, patients (%) (Cohort 1, N = 30): (16.7) %
- TEAE Gastrointestinal Disorders, patients (%) (Cohort 1, N = 30): (50.0) %
- TEAE General Disorders and Administration Site Conditions, patients (%) (Cohort 1, N = 30): (36.7) %
- TEAE Headache, patients (%) (Cohort 1, N = 30): 23.3% and 23%
- TEAE Hiccups, patients (%) (Cohort 1, N = 30): (10.0) %
- TEAE Hyperglycaemia, patients (%) (Cohort 1, N = 30): (13.3) %
- TEAE Hypopho sphataemia, patients (%) (Cohort 1, N = 30): (13.3) %
- TEAE Intensity Life Threatening, No of Events (Cohort 1, N = 30): 3
- TEAE Intensity Life Threatening, patients (%) (Cohort 1, N = 30): (10.0) %
- TEAE Intensity Mild, No of Events (Cohort 1, N = 30): 177
- TEAE Intensity Mild, patients (%) (Cohort 1, N = 30): (73.3) %
- TEAE Intensity Moderate, No of Events (Cohort 1, N = 30): 100
- TEAE Intensity Moderate, patients (%) (Cohort 1, N = 30): (66.7) %
- TEAE Intensity Severe, No of Events (Cohort 1, N = 30): 59
- TEAE Intensity Severe, patients (%) (Cohort 1, N = 30): (60.0) %
- TEAE Investigations SOC, events (Cohort 1, N = 30): 101
- TEAE Leukopenia, patients (%) (Cohort 1, N = 30): 16.7%
- TEAE Lymphocyte count decreased, patients (%) (Cohort 1, N = 30): 16.7%
- TEAE Metabolism and Nutrition Disorders, patients (%) (Cohort 1, N = 30): (26.7) %
- TEAE Muscular weakness, patients (%) (Cohort 1, N = 30): 10.0%
- TEAE Musculoskeletal and Connective Tissue Disorders, patients (%) (Cohort 1, N = 30): (33.3) %
- TEAE Musculoskeletal pain, patients (%) (Cohort 1, N = 30): 10.0%
